LD50 data for one compound are collected here from patent US11400107B2, “Cancer treatments” (NuCana plc, priority 2016, dated 2022).

The test system of the assay is primary acute myeloid leukaemia (AML) blasts. Put plainly: In vitro cytotoxicity assay (LD50) in primary acute myeloid leukaemia cells. It counts as cell-based, human. The following applies: primary AML blasts, 48 h; concentration required to kill 50% of the tumour cells in culture. On the procedure: ProTide compounds, as defined herein, and the comparator ProTide compound NUC-1031 were assayed for their cytotoxic effects on primary cultures of acute myeloid leukaemia (AML) blasts. LD50 values (the concentration required to kill 50% of the tumour cells in culture) were calculated in respect of the ProTide compounds of the invention, and the parent compounds from which they are derived. […] The LD50 values of the ProTide compounds as defined herein (and their parent compounds) were compared with the comparator ProTide NUC-1031 and its parent compound gemcitabine.
Bone marrow samples were collected in ethylenediaminetetraacetic acid (EDTA) from newly diagnosed, previously untreated, acute myeloid leukaemia (AML) patients. AML blasts were enriched by density gradient centrifugation using Histopaque (Sigma, Poole, UK) and were subsequently maintained in Roswell Park Memorial Institute medium (RPMI) supplemented with 10% foetal bovine serum (FBS). Cells were treated with ProTide compounds (either as encompassed by the present invention, or the comparator ProTide NUC-1031) or with the ProTides' parent compounds at a range of experimental concentrations, and incubated for 48 h. All cultures were maintained at 37° C. in a 5% CO2 humidified atmosphere.
Cells were harvested and labelled with CD34-fluorescein isothiocyanate (FITC) (BD Biosciences, Buckingham, UK) and then resuspended in 200 μl of binding buffer containing 4 μl of annexin V labelled with allophycocyanin (APC) (eBioscience Ltd, Hatfield, UK). Apoptosis was quantified in the CD34^+ AML cells using an Accuri C6 flow cytometer (Becton Dickinson, CA, USA). At least 10,000 events were acquired and data were subsequently analysed using FlowJo software (Tree Star Inc., Ashland, Oreg., USA). All LD50 values (concentration of drug required to kill 50% of cells) were derived from the dose-response curves.

In the case of `C[C@H](NP(=O)(OC[C@H]1O[C@@H](n2ccc(N)nc2=O)C(F)(F)[C@@H]1O)Oc1ccccc1)C(=O)OCc1ccccc1` (stereo partly drawn) [NUC-1031, 2′-deoxy-2′,2′-difluoro-D-cytidine-5′-O-[phenyl (benzoxy-L-alaninyl)] phosphate], the LD50 result is given as “NUC-1031 0.28 μM”.
